In ChEMBL document CHEMBL1201862, “PubChem BioAssay data set” (2004):
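Assay format: 96-well plates, 48-hour exposure. GI50 is the concentration that inhibits growth by half.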 Activity calls are given as the source filed them. No stated cut-off is given here; in the data, active = GI50 up to about 1.1 µM and inactive = higher.

Legend:
Assay in all cases: NCI-60 cell line screen, 48 h
786-0 = system: 786-0
A498 = system: A498
A549 = system: A549
ACHN = system: ACHN
CAKI-1 = system: CAKI-1
CCRF-CEM = system: CCRF-CEM
COLO 205 = system: COLO 205
DLD-1 = system: DLD-1
DMS-114 = system: DMS-114
DMS-273 = system: DMS-273
EKVX = system: EKVX
HCC 2998 = system: HCC 2998
HCT-116 = system: HCT-116
HCT-15 = system: HCT-15
HL-60 = system: HL-60
HOP-18 = system: HOP-18
HOP-62 = system: HOP-62
HOP-92 = system: HOP-92
HT-29 = system: HT-29
IGROV-1 = system: IGROV-1
K562 = system: K562
KM-20L2 = system: KM-20L2
KM12 = system: KM12
LOX IMVI = system: LOX IMVI
LXFL 529 = system: LXFL 529
M14 = system: M14
M19-MEL = system: M19-MEL
MOLT-4 = system: MOLT-4
Malme-3M = system: Malme-3M
NCI-H226 = system: NCI-H226
NCI-H23 = system: NCI-H23
NCI-H460 = system: NCI-H460
NCI-H522 = system: NCI-H522
OVCAR-3 = system: OVCAR-3
OVCAR-4 = system: OVCAR-4
OVCAR-5 = system: OVCAR-5
OVCAR-8 = system: OVCAR-8
RPMI-8226 = system: RPMI-8226
RXF 393 = system: RXF 393
RXF 631 = system: RXF 631
SF-268 = system: SF-268
SF-295 = system: SF-295
SF-539 = system: SF-539
SK-MEL-28 = system: SK-MEL-28
SK-MEL-2 = system: SK-MEL-2
SK-MEL-5 = system: SK-MEL-5
SK-OV-3 = system: SK-OV-3
SN12C = system: SN12C
SNB-19 = system: SNB-19
SNB-75 = system: SNB-75
SNB-78 = system: SNB-78
SR = system: SR
SW-620 = system: SW-620
TK-10 = system: TK-10
U-251 = system: U-251
UACC-257 = system: UACC-257
UACC-62 = system: UACC-62
UO-31 = system: UO-31
XF498 = system: XF498

Measured: GI50

O=C(CC1(O)C(=O)Nc2c(Cl)cc(Cl)cc21)c1ccc(Br)cc1 (stereo unspecified)
35 µM: HCT-15
inactive: 786-0 13.2 µM | A498 > 49.2 µM | A549 20.7 µM | ACHN 15.3 µM | CAKI-1 16.1 µM | CCRF-CEM 14.9 µM | COLO 205 > 40.7 µM | DLD-1 13.2 µM | DMS-114 20.6 µM | DMS-273 13.5 µM | EKVX 15.2 µM | HCC 2998 39.5 µM | HCT-116 17.5 µM | HL-60 4.3 µM | HOP-18 15.7 µM | HOP-62 20.2 µM | HOP-92 15.7 µM | HT-29 37.7 µM | IGROV-1 18.2 µM | K562 24.5 µM | KM-20L2 16.8 µM | KM12 15.2 µM | LOX IMVI 22.5 µM | LXFL 529 > 37.9 µM | M14 17.6 µM | M19-MEL 7.76 µM | MOLT-4 22.1 µM | Malme-3M > 41.3 µM | NCI-H226 14.9 µM | NCI-H23 14 µM | NCI-H460 38.6 µM | NCI-H522 16.6 µM | OVCAR-3 14.1 µM | OVCAR-4 12.4 µM | OVCAR-5 17.2 µM | OVCAR-8 33.8 µM | RPMI-8226 13 µM | RXF 393 16 µM | RXF 631 12.4 µM | SF-268 16.4 µM | SF-295 29.5 µM | SF-539 16.3 µM | SK-MEL-28 19.7 µM | SK-MEL-2 > 41.1 µM | SK-MEL-5 16.9 µM | SK-OV-3 27 µM | SN12C 33.1 µM | SNB-19 16.3 µM | SNB-75 17.1 µM | SNB-78 19.1 µM | SR 19.8 µM | SW-620 26.9 µM | TK-10 17.6 µM | U-251 13.4 µM | UACC-257 29.4 µM | UACC-62 9.08 µM | UO-31 12.9 µM

CC(=O)O[C@H]1[C@@H]2[C@@H]3[C@@H](C[C@H]1C)[C@@H](C)CO[C@@]1(C)CC/C=C(/C)C[C@@H]2O[C@@H]31
> 100 µM: HCT-15
inactive: 786-0 > 100 µM | A498 > 100 µM | A549 > 100 µM | ACHN > 100 µM | CAKI-1 > 100 µM | CCRF-CEM > 100 µM | COLO 205 > 100 µM | DLD-1 > 100 µM | DMS-114 > 100 µM | DMS-273 > 100 µM | EKVX > 100 µM | HCC 2998 56.2 µM | HCT-116 > 100 µM | HL-60 > 100 µM | HOP-18 > 100 µM | HOP-62 > 100 µM | HOP-92 > 100 µM | HT-29 > 100 µM | IGROV-1 > 100 µM | K562 > 100 µM | KM-20L2 > 100 µM | KM12 > 100 µM | LOX IMVI > 100 µM | LXFL 529 > 100 µM | M14 > 100 µM | M19-MEL > 100 µM | MOLT-4 > 100 µM | Malme-3M > 100 µM | NCI-H226 > 100 µM | NCI-H23 > 100 µM | NCI-H460 > 100 µM | NCI-H522 > 100 µM | OVCAR-3 > 100 µM | OVCAR-4 > 100 µM | OVCAR-5 > 100 µM | OVCAR-8 > 100 µM | RPMI-8226 > 100 µM | RXF 393 > 100 µM | RXF 631 > 100 µM | SF-268 > 100 µM | SF-295 > 100 µM | SF-539 > 100 µM | SK-MEL-28 > 100 µM | SK-MEL-2 > 100 µM | SK-MEL-5 > 100 µM | SK-OV-3 > 100 µM | SN12C > 100 µM | SNB-19 > 100 µM | SNB-75 > 100 µM | SR > 100 µM | SW-620 > 100 µM | TK-10 > 100 µM | U-251 > 100 µM | UACC-257 > 100 µM | UACC-62 > 100 µM | UO-31 > 100 µM | XF498 > 100 µM
